Test results from patent publication EP0245669B1, “Pharmaceutical preparation for preventing damage to living cells by free radicals, or for increasing the efficacy of organic sulphur compounds, and process for increasing the life span of isolated organs” (Medopharm Arzneimittelwerk Dr. Zillich GmbH & Co., priority 1986, dated 1987).

Key:
[1] = test system: weiblichen C3H Mäusen; assay: Radiation protection: survival of mice after gamma irradiation (cobalt-60) following i.p. pretreatment; format: in vivo, Mäuse; details: for Ueberlebensrate nach Bestrahlung mit 12 Gy Anzahl / Ueberlebensrate nach Bestrahlung mit 13 Gy Anzahl / Ueberlebensrate nach Bestrahlung mit 9 Gy Anzahl / Ueberlebensrate nach Bestrahlung mit 10 Gy Anzahl / Ueberlebensrate nach Bestrahlung mit 11 Gy Anzahl: surviving/irradiated mice; for Ueberlebensrate in %: best result with zinc aspartate alone, 30 days after irradiation; for Ueberleben einer Bestrahlung von 14 Gy: zinc aspartate alone
From the text: In den nachfolgenden Beispielen wurde die synergistische Wirkung der durch die erfindungsgemässe Verwendung hergestellten pharmazeutischen Präparate mit organische Schwefelverbindungen enthaltenden Präparaten anhand des Strahlenschutzes getestet und es wurde auch die Strahlenschutzwirkung der Zinkionen enthaltenden Präparate mit bisher bekannten Strahlenschutzpräparaten an Mäusen getestet. Die Versuche wurden mit weiblichen C3H Mäusen (GL. Bomholtgard, Ry, Dänemark) durchgeführt, die 20 bis 22 g wogen. Die Mäuse wurden unter Bedingungen gehalten, wo sie so viel Standard-Nagetierfutter (Nafag Pellts) fressen und so viel Leitungswasser trinken können, wie sie wollten. Die Bestrahlung erfolgte mit Gammastrahlen aus einer Kobalt-60 Quelle. Es wurden unterschiedliche Bestrahlungen vorgenommen, und zwar mit 9 Gy, 10 Gy, 11 Gy, 12 Gy, 13 Gy und 14 Gy.
10 Minuten vor der Bestrahlung, 30 Minuten vor der Bestrahlung oder 120 Minuten vor der Bestrahlung wurde ein durch die erfindungsgemässe Verwendung hergestelltes synergistisch wirkendes pharmazeutisches Präparat, bzw. ein entsprechendes, Zinkionen enthaltendes Strahlenschutzpräparat oder ein aus dem Stand der Technik bekanntes Strahlenschutzpräparat zu Vergleichszwecken durch intraperitoneale Injektion verabreicht.
Bei der Gruppe der Mäuse zu Vergleichszwecken, die ohne Verabreichung eines Strahlenschutzpräparates bestrahlt wurden, erfolgte 10 Minuten vor der Bestrahlung die Verabreichung von destilliertem Wasser. Bei diesen unbehandelten Mäusen überlebten nur 50% der Tiere eine Bestrahlung von 8 Gy, d.h. der LD₅₀-Wert betrug 8 Gy.
Nach den Arbeitsweisen der vorangegangenen Beispiele 1 bis 4, wurden weitere Tests mit den genannten weiblichen Mäusen durchgeführt, und zwar unter Verwendung der angeführten Zinksalze. Die bei diesen Tests erzielten Ergebnisse sind in der nachfolgenden Tabelle I zusammengestellt. Für jede der angewandten Bestrahlungsstärken ist in der Rubrik "Anzahl" diejenige Anzahl der Mäuse angeführt, welche die Bestrahlung überlebten, geteilt durch die Gesamtzahl der Mäuse, welche bestrahlt wurden. Ein entsprechender Wert von 1/10 bedeutet also, dass von 10 bestrahlten Mäusen eine überlebt hatte. In der Spalte mit der Bezeichnung "Prozent", ist die Prozent-Ueberlebensrate angeführt. Bei einer überlebenden Maus pro 10 getesteten Mäusen beträgt diese Ueberlebensrate 10 %.
Zu Vergleichszwecken sind in der nachfolgenden Tabelle III die Ueberlebensraten von Mäusen zusammengestellt, die nach dem in Beispiel 5 beschriebenen Verfahren einer Vorbehandlung mit einem bekannten schwefelhaltigen Strahlenschutzmittel unterworfen worden waren. Orientierende Vorversuche hatten gezeigt, dass diese Strahlenschutzmittel bereits ihre Wirkung verloren hatten, wenn sie zwei Stunden vor der Einwirkung der Bestrahlung verabreicht worden waren. Die Bestrahlung wurde, wie aus der Tabelle ersichtlich ist, zwei Minuten nach der Verabreichung, in den meisten Fällen 10 Minuten nach der Verabreichung, aber auch 30 Minuten, bzw. 120 Minuten nach der Verabreichung durchgeführt. Die Werte deuten darauf hin, dass 30 Minuten nach der Verabreichung die Schutzwirkung schon wieder deutlich nachgelassen hat. Für jede Bestrahlungsstärke ist wiederum die Anzahl der Tiere angeführt, die nach 30 Tagen überlebt haben, geteilt durch die Gesamtzahl der Tiere, die behandelt und bestrahlt worden waren.
Anhand dieses Beispiels soll die synergistische Wirkung von Zinkionen und Schwefelverbindungen bezüglich eines Strahlenschutzes erläutert werden. Es wurde wieder in der gleichen Weise gearbeitet, wie in den vorangegangenen Beispielen 1 bis 3, bzw. 5, und es wurde auch die gleiche Art an weiblichen Mäusen getestet. Die Verabreichung der Zinkionen enthaltenden Lösung und der Lösung der Schwefelverbindung erfolgte entweder nacheinander oder gleichzeitig durch intraperitoneale Injektion.
In allen Fällen wurde die Ueberlebensrate 30 Tage nach der Einwirkung der Bestrahlung bestimmt.

[2] = test system: Mäuse; assay: Toxicity of the zinc salts used as radiation protection agents (LD50); format: in vivo
Experimental: In diesem Beispiel wurde die Toxizität der als Strahlenschutzmittel eingesetzten Zinksalze getestet.
Der LD₅₀-Wert betrug für das Zinkaspartat 55 mg/kg Körpergewicht, für das Zinkchlorid 24 mg/kg Körpergewicht und für das Zinksulfat 45 mg/kg Körpergewicht.

[3] = 30 mg/kg i.p., 120 min before 12 Gy
[4] = 30 mg/kg i.p., 120 min before 13 Gy
[5] = 40 mg/kg i.p., 10 min before 9 Gy
[6] = 40 mg/kg i.p., 10 min before 10 Gy
[7] = 40 mg/kg i.p., 10 min before 11 Gy
[8] = 40 mg/kg i.p., 10 min before 12 Gy
[9] = 40 mg/kg i.p., 10 min before 13 Gy
[10] = 40 mg/kg i.p., 30 min before 9 Gy
[11] = 40 mg/kg i.p., 30 min before 10 Gy
[12] = 40 mg/kg i.p., 30 min before 11 Gy
[13] = 40 mg/kg i.p., 30 min before 12 Gy
[14] = 40 mg/kg i.p., 30 min before 13 Gy
[15] = 40 mg/kg i.p., 120 min before 9 Gy
[16] = 40 mg/kg i.p., 120 min before 10 Gy
[17] = 40 mg/kg i.p., 120 min before 11 Gy
[18] = 40 mg/kg i.p., 120 min before 12 Gy
[19] = 40 mg/kg i.p., 120 min before 13 Gy

Q: With “Zink-bis-(DL-hydrogenaspartat) [Zinkaspartat]” as the substance, how does the “Ueberlebensrate nach Bestrahlung mit 12 Gy %” value [1, 3] read?
A: 35%

Q: And the “Ueberlebensrate nach Bestrahlung mit 12 Gy Anzahl” value [1, 3]?
A: 7/20

Q: And the “Ueberlebensrate nach Bestrahlung mit 13 Gy %” value [1, 4]?
A: 14%

Q: And the “Ueberlebensrate nach Bestrahlung mit 13 Gy Anzahl” value [1, 4]?
A: 4/29

Q: And the “Ueberlebensrate nach Bestrahlung mit 9 Gy %” value [1, 5]?
A: 59%

Q: And the “Ueberlebensrate nach Bestrahlung mit 9 Gy Anzahl” value [1, 5]?
A: 17/29

Q: And the “Ueberlebensrate nach Bestrahlung mit 10 Gy %” value [1, 6]?
A: 55%

Q: And the “Ueberlebensrate nach Bestrahlung mit 10 Gy Anzahl” value [1, 6]?
A: 16/29

Q: And the “Ueberlebensrate nach Bestrahlung mit 11 Gy %” value [1, 7]?
A: 3%

Q: What about the “Ueberlebensrate nach Bestrahlung mit 11 Gy Anzahl” value [1, 7] of the same substance?
A: 1/40

Q: What about the “Ueberlebensrate nach Bestrahlung mit 12 Gy %” value [1, 8] of the same substance?
A: 17%

Q: And the “Ueberlebensrate nach Bestrahlung mit 12 Gy Anzahl” value [1, 8]?
A: 5/30

Q: What about the “Ueberlebensrate nach Bestrahlung mit 13 Gy %” value [1, 9] of the same substance?
A: 5%

Q: And the “Ueberlebensrate nach Bestrahlung mit 13 Gy Anzahl” value [1, 9]?
A: 1/19

Q: What about the “Ueberlebensrate nach Bestrahlung mit 9 Gy %” value [1, 10] of the same substance?
A: 45%

Q: And the “Ueberlebensrate nach Bestrahlung mit 9 Gy Anzahl” value [1, 10]?
A: 9/20

Q: And the “Ueberlebensrate nach Bestrahlung mit 10 Gy %” value [1, 11]?
A: 70%

Q: And the “Ueberlebensrate nach Bestrahlung mit 10 Gy Anzahl” value [1, 11]?
A: 7/10

Q: And the “Ueberlebensrate nach Bestrahlung mit 11 Gy %” value [1, 12]?
A: 50%

Q: And the “Ueberlebensrate nach Bestrahlung mit 11 Gy Anzahl” value [1, 12]?
A: 5/10

Q: And the “Ueberlebensrate nach Bestrahlung mit 12 Gy %” value [1, 13]?
A: 30%

Q: What about the “Ueberlebensrate nach Bestrahlung mit 12 Gy Anzahl” value [1, 13] of the same substance?
A: 3/10

Q: What about the “Ueberlebensrate nach Bestrahlung mit 13 Gy %” value [1, 14] of the same substance?
A: 24^+ %

Q: What about the “Ueberlebensrate nach Bestrahlung mit 13 Gy Anzahl” value [1, 14] of the same substance?
A: 7/29

Q: What about the “Ueberlebensrate nach Bestrahlung mit 9 Gy %” value [1, 15] of the same substance?
A: 50%

Q: And the “Ueberlebensrate nach Bestrahlung mit 9 Gy Anzahl” value [1, 15]?
A: 5/10

Q: What about the “Ueberlebensrate nach Bestrahlung mit 10 Gy %” value [1, 16] of the same substance?
A: 50%

Q: And the “Ueberlebensrate nach Bestrahlung mit 10 Gy Anzahl” value [1, 16]?
A: 5/10

Q: What about the “Ueberlebensrate nach Bestrahlung mit 11 Gy %” value [1, 17] of the same substance?
A: 10%

Q: What about the “Ueberlebensrate nach Bestrahlung mit 11 Gy Anzahl” value [1, 17] of the same substance?
A: 1/10

Q: And the “Ueberlebensrate nach Bestrahlung mit 12 Gy %” value [1, 18]?
A: 0%

Q: What about the “Ueberlebensrate nach Bestrahlung mit 12 Gy Anzahl” value [1, 18] of the same substance?
A: 0/10

Q: And the “Ueberlebensrate nach Bestrahlung mit 13 Gy %” value [1, 19]?
A: 5%

Q: And the “Ueberlebensrate nach Bestrahlung mit 13 Gy Anzahl” value [1, 19]?
A: 1/19

Q: And the Ueberlebensrate in % ([1]; 8 Gy)?
A: 100%

Q: And the Ueberlebensrate in % ([1]; 9 Gy)?
A: 90%

Q: What about the Ueberlebensrate in % ([1]; 10 Gy) of the same substance?
A: 74%

Q: What about the Ueberlebensrate in % ([1]; 11 Gy) of the same substance?
A: 60%

Q: And the Ueberlebensrate in % ([1]; 12 Gy)?
A: 57%

Q: What about the Ueberlebensrate in % ([1]; 13 Gy) of the same substance?
A: 24%

Q: What about the Ueberlebensrate in % ([1]; 14 Gy) of the same substance?
A: 0%

Q: What about the Strahlenschutzwirkung ([1]; comparison with Zinkchlorid and Zinksulfat) of the same substance?
A: Besonders vorteilhaft

Q: What about the “Ueberleben einer Bestrahlung von 14 Gy” value ([1]; 20 mg/kg body weight, 14 Gy) of the same substance?
A: nicht überlebten

Q: What about the “Ueberleben einer Bestrahlung von 14 Gy” value ([1]; 30 mg/kg body weight, 14 Gy) of the same substance?
A: nicht überlebten

Q: What about the LD₅₀-Wert [2] of the same substance?
A: 55 mg/kg Körpergewicht
